Assay results: patent US20240092739A1, “COMPOUNDS AND METHODS OF USE” (Ferro Therapeutics, Inc, priority 2020, published 2024)
Read-outs that look alike come from different tables or passages of the source.

Tests used:
[1] = tested on: 786-O (renal cell carcinoma) cells; assay: Cell proliferation (Alamar Blue) assay, 786-O cells; type: cell-based; conditions: Homo sapiens
Procedure: (§1) Cell viability assay was performed to assess the potency of the compounds in human cancer cell lines 786-0 (renal cell carcinoma) and SJSA-1 (osteosarcoma). Additional cell lines, such as pancreatic cancer cell lines (Panc 02.13, BxPC-3, Panc 12, Panc 02.03, Panc 6.03, PSN-1, HPAC, and Capan-1), prostate cancer cell lines (PC-3, DU145, […], NCI-H660, 1PH1 LNCaP, BM-1604, and MDA PCa 2b), etc., can be tested in a similar method.
(§2) Cells (SJSA-1, 786-0 and A431) were seeded (5000 cells/100 μL/well) in 96-well tissue culture plate and incubated at 37° C./500 CO2 for 16-24 hours. The cells were then treated with compounds (25 μL of 5×). The compound concentrations were 10-0.0005 μM prepared in 3-fold serial dilutions with final DMSO concentration of 1%. The plates were then incubated for 24 h at 37° C./[…] in a moist environment. Then Alamar Blue™ reagent (final concentration 1×-12.5 μL) was added to each well and incubated for 1.5 hours at 37° C./500 CO2. The plates were read on fluorescence reader at 540 nm excitation and 590 nm emission wavelengths. The IC50 values were subsequently determined using a sigmoidal dose-response curve (variable slope) in GraphPad Prism® 5 software. Tables A-3 and B-11 show cell proliferation data for exemplary compounds as described herein.

[2] = tested on: 786-O cells + Ferrastatin-1; assay: GPX4 inhibition assay: cell proliferation (Alamar Blue) in 786-O cells with ferrostatin rescue; type: cell-based, human; conditions: 786-O cells with Ferrastatin-1 (rescue), read-out: Cell proliferation IC50 (μM) 786-O + Ferrastatin-1
Procedure: as §2
Studies have shown that lipophilic antioxidants, such as ferrostatin, can rescue cells from GPX4 inhibition-induced ferroptosis. For instance, mesenchymal state GPX4-knockout cells can survive in the presence of ferrostatin, however, when the supply of ferrostatin is terminated, these cells undergo ferroptosis (see, e.g., Viswanathan et al., Nature 547:453-7, 2017). […] Accordingly, the ability of a molecule to induce ferroptotic cancer cell death, and that such ability is admonished by the addition of ferrostatin, is clear indication that the molecule is an GPX4 inhibitor. Cell proliferation data for exemplary compounds with and without ferrostatin can be seen in Table A-3.

A431 cells = assay: Cell proliferation (Alamar Blue) assay, A431 cells; type: cell-based; conditions: Homo sapiens
Procedure: as §1, §2

[3] = 786-0, 786-O cells, 24 h compound incubation, Alamar Blue, read-out: Cell proliferation IC50 (μM) 786-O
[4] = A-431, A431 cells, 24 h compound incubation, Alamar Blue, read-out: Cell proliferation IC50 (μM) A431
[5] = 786-0, 786-O cells, 24 h compound treatment, Alamar Blue, read-out: IC50 (μM) 786-O
[6] = A-431, A431 cells, 24 h compound treatment, Alamar Blue, read-out: IC50 (μM) A431

Structure (SMILES) | IC50 [1, 3] [µM] | IC50 [2] [µM] | IC50 (A431 cells; [4]) [µM] | also measured
COc1ccc2c(c1)C[C@H](C1CCC1)N(C(=O)C#C[Si](C)(C)C)[C@@H]2c1ccc(NC23CC4CC(CC(C4)C2)C3)cc1 (stereo in doubt) [Compound A-8, 1-((1R,3R)-1-(4-(((3S,5S,7S)-adamantan-1-yl)amino)phenyl)-3-cyclobutyl-6-methoxy-3,4-dihydroisoquinolin-2(1H)-yl)-3-(trimethylsilyl)prop-2-yn-1-one] | 0.064 | 5.05 | 4.79 | 
CCCC[C@H]1Cc2cc(OC)ccc2[C@@H](c2ccc(NC34CC5CC(CC(C5)C3)C4)c(C#N)c2)N1C(=O)C#C[Si](C)(C)C (stereo in doubt) [Compound A-16, 2-(((3S,5S,7S)-adamantan-1-yl)amino)-5-((1R,3S)-3-butyl-6-methoxy-2-(3-(trimethylsilyl)propioloyl)-1,2,3,4-tetrahydroisoquinolin-1-yl)benzonitrile] | 0.016 | > 10 | ≥ 10 | 
CCCC[C@H]1Cc2cc(OC)ccc2[C@H](c2ccc(C#N)cc2)N1C(=O)C#C[Si](C)(C)C [Compound A-1] | 0.043 | 7 | > 10 | 
CCCC[C@H]1Cc2c([nH]c3ccccc23)[C@H](c2ccc(NC3CCC3)cc2)N1C(=O)C#C[Si](C)(C)C [Compound A-2] |  | 8.63 |  | IC50 ([1]; 786-0, 24 h, read-out: Cell proliferation IC50 (μM) 786-O): 0.009 µM; IC50 (A431 cells; A-431, 24 h, read-out: Cell proliferation IC50 (μM) A431): > 10 µM
CCC[C@H]1Cc2cc(OC)ccc2[C@H](c2ccc(NC34CC5CC(CC(C5)C3)C4)cc2)N1C(=O)C#C[Si](C)(C)C [Compound A-3] | 0.029 | > 1 |  | 
CCC[C@H]1Cc2cc(OC)ccc2[C@@H](c2ccc(NC34CC5CC(CC(C5)C3)C4)cc2)N1C(=O)C#C[Si](C)(C)C [Compound A-4] | 0.067 | > 1 | > 1 | 
COC[C@H]1Cc2cc(OC)ccc2[C@@H](c2ccc(NC34CC5CC(CC(C5)C3)C4)cc2)N1C(=O)C#C[Si](C)(C)C [Compound A-5] | 0.039 | > 1 | > 1 | 
CCCC[C@H]1Cc2cc(OC)ccc2[C@H](c2ccc(NC34CC5CC(CC(C5)C3)C4)cc2)N1C(=O)C#C[Si](C)(C)C [Compound A-6, 1-((1S,3S)-1-(4-(((1s,3R)-adamantan-1-yl)amino)phenyl)-3-butyl-6-methoxy-3,4-dihydroisoquinolin-2(1H)-yl)-3-(trimethylsilyl)prop-2-yn-1-one] | 0.021 | > 1 | > 1 | 
COc1ccc2c(c1)C[C@H](C1CCC1)N(C(=O)C#C[Si](C)(C)C)[C@H]2c1ccc(NC23CC4CC(CC(C4)C2)C3)cc1 [Compound A-7, 1-((1S,3R)-1-(4-(((3R,5R,7R)-adamantan-1-yl)amino)phenyl)-3-cyclobutyl-6-methoxy-3,4-dihydroisoquinolin-2(1H)-yl)-3-(trimethylsilyl)prop-2-yn-1-one] | 0.021 | > 1 |  | 
CCCC[C@H]1Cc2cc(OC)ccc2[C@H](c2ccc(NC34CC5CC(CC(C5)C3)C4)c(C#N)c2)N1C(=O)C#C[Si](C)(C)C [Compound A-15, 2-(((3R,5R,7R)-adamantan-1-yl)amino)-5-((1S,3S)-3-butyl-6-methoxy-2-(3-(trimethylsilyl)propioloyl)-1,2,3,4-tetrahydroisoquinolin-1-yl)benzonitrile] | 0.021 | > 1 |  | 
CCCC[C@H]1Cc2cc(OC)ccc2[C@H](c2ccc(NC3CCC3)cc2)N1C(=O)C#C[Si](C)(C)C [Compound A-25, 1-((1S,3S)-3-butyl-1-(4-(cyclobutylamino)phenyl)-6-methoxy-3,4-dihydroisoquinolin-2(1H)-yl)-3-(trimethylsilyl)prop-2-yn-1-one] | 0.171 | > 1 |  | 
CCCC[C@H]1Cc2cc(OC)ccc2[C@H](c2ccc(NC34CC5CC(CC(C5)C3)C4)cc2)N1C(=O)C#C[Si](C)(C)CC [Compound A-33, 1-((1S,3S)-1-(4-(((1s,3R)-adamantan-1-yl)amino)phenyl)-3-butyl-6-methoxy-3,4-dihydroisoquinolin-2(1H)-yl)-3-(ethyldimethylsilyl)prop-2-yn-1-one] | 0.023 | > 1 |  | 
CCCC[C@H]1Cc2cc(OC)ccc2[C@H](c2ccc(NC34CC5CC(CC(C5)C3)C4)c(Cl)c2)N1C(=O)C#C[Si](C)(C)C [Compound A-46] | 0.31 |  | ≥ 10 | 
C#CC(=O)N1[C@@H](CCCC)Cc2cc(OC)ccc2[C@H]1c1ccc(NC23CC4CC(CC(C4)C2)C3)cc1 [Compound B-2] |  |  |  | IC50 [1, 5]: 0.192 µM; IC50 (A431 cells; [6]): > 1 µM
C#CC(=O)N1[C@@H](c2ccc(NC34CC5CC(CC(C5)C3)C4)cc2)c2ccc(OC)cc2C[C@@H]1C1CCC1 [Compound B-4] |  |  |  | IC50 [1, 5]: 0.016 µM
C#CC(=O)N1[C@@H](CCCC)Cc2cc(OC)ccc2[C@@H]1C12CC(F)(C1)C2 [Compound B-5] |  |  |  | IC50 [1, 5]: 0.145 µM; IC50 (A431 cells; [6]): > 1 µM
C#CC(=O)N1[C@@H](CCCC)Cc2cc(OC)ccc2[C@H]1C12CC(F)(C1)C2 [Compound B-6] |  |  |  | IC50 [1, 5]: 0.067 µM; IC50 (A431 cells; [6]): > 1 µM
